In paper PMC5947727, “Crystal structures of Lymphocytic choriomeningitis virus endonuclease domain complexed with diketo-acid ligands” (IUCrJ, 2018) one finds Kd data, which are given here for four compounds.

As a reminder, the Kd is a measure of binding affinity in units of concentration. A higher Kd goes with a looser complex.

Assay [1] addresses T1, LCMV endonuclease domain (ENDO, ENDO-WT) (Lymphocytic choriomeningitis virus (strain Armstrong), UniProt P14240, D119A).
T1 construct: gene L; N-terminal endonuclease domain of L (residues 1-196), N-terminal hexahistidine tag, pDEST14, E. coli Rosetta (DE3) pLysS; IMAC, Q Sepharose, Superdex 200
The assay is described as follows: biochemical. Format: binding.

The target of assay [2] is T2, LCMV endonuclease domain (ENDO, ENDO-WT) (Lymphocytic choriomeningitis virus (strain Armstrong), UniProt P14240).
T2 construct: gene L; N-terminal endonuclease domain of L (residues 1-196), N-terminal hexahistidine tag, pDEST14, E. coli Rosetta (DE3) pLysS; IMAC, Q Sepharose, Superdex 200
The experiment in a line: biochemical. The class given is binding.

Consider `O=C(O)C(=O)CC(=O)c1ccccc1` [compound 1, 2,4-dioxo-4-phenylbutanoic acid], for which the Kd is 18.8 ± 3.88 µM in assay [1] and 5.38 ± 2.06 µM in assay [2]. For `O=C(O)/C(O)=C/C(=O)C1(Cc2ccc(Cl)cc2)CCN(Cc2ccccc2)CC1` [compound 2, (Z)-4-{1-benzyl-4-[(4-chlorophenyl)methyl]piperidin-4-yl}-2-hydroxy-4-oxobut-2-enoic acid] the same measures were 0.89 ± 0.06 µM and 0.51 ± 0.11 µM. In assay [2], `O=C(O)C(O)=CC(=O)c1ccc(-c2ccccc2)cc1` [compound 3, 2-hydroxy-4-(biphenyl-4-yl)-4-oxobut-2-enoic acid] registered a Kd of 0.05 ± 0.02 µM.

Consider `O=C(O)C(O)=CC(=O)c1ccc2ccc3ccccc3c2c1` [compound 4, 2-hydroxy-4-oxo-4-(phenanthren-3-yl)but-2-enoic acid], for which the affinity in assay [2], expressed as Kd, was 0.25 ± 0.07 µM.
